According to US20240358693A1, “METHODS OF TREATING PAIN” (Aisa Pharma, Inc., priority 2023, published 2024):

System: participants with SSc-RP
Assay: Scleroderma Health Assessment Questionnaire (SHAQ): disability indices and visual analog scales
Type: in vivo, human
Settings: for SHAQ Visual Analogue Scale - Overall Disease Severity, Median / SHAQ Visual Analogue Scale - Pain, Mean / SHAQ Visual Analogue Scale - Pain, Median / SHAQ Visual Analogue Scale - Raynaud's, Mean / SHAQ Visual Analogue Scale - Raynaud's, Median / SHAQ Visual Analogue Scale - Breathing Problems, Mean / SHAQ Visual Analogue Scale - Breathing Problems, Median / SHAQ Visual Analogue Scale - Finger Ulcers, Mean / SHAQ Visual Analogue Scale - Finger Ulcers, Median / SHAQ Visual Analogue Scale - Intestinal Problems, Mean / SHAQ Visual Analogue Scale - Intestinal Problems, Median / SHAQ Visual Analogue Scale - Overall Disease Severity, Mean: In-Clinic Visit (Day 12), PP Population Part A
From the text: The standard, validated, patient reported outcome measures tool for SSc patients, the Scleroderma Health Assessment Questionnaire (SHAQ), will be used to assess the participant qualify of life. Details are attached in the Appendix. The participant quality of life will be scored, and a disability index calculated for each questionnaire completed by the patient at Screening and each in-clinic visit. The absolute change in participant quality of life from baseline to the end of each dosing period will be calculated similar to frequency data as before.
The SHAQ includes a Raynaud's VAS, which will be reported at screening and each in-clinic visit. The absolute change in Raynaud-VAS, assessed by the participants response to the SHAQ question ‘In the past 7 days, how much have your Raynaud's interfered with your daily activities?’ at baseline and the end of each dosing period will be calculated similar to frequency data as before.
The SHAQ is used to calculate a Disability Index to assess the participant qualify of life. The eight categories assessed by the Disability Index are 1) dressing and grooming, 2) arising, 3) eating, 4) walking, 5) hygiene, 6) reach, 7) grip, and 8) common daily activities. For each of these categories, patients report the amount of difficulty they have in performing two or three specific activities.
There are four possible responses for the Disability Index questions: • Without any difficulty=0 • With some difficulty=1 • With much difficulty=2 • Unable to do=3. • The highest score reported by the patient for any component question of the eight categories determines the score for that category. • If a component question is left blank or the response is too ambiguous to assign a score, then the score for that category is determined by the remaining completed question(s). • If all component questions are blank or if more than one answer is given, then follow up with the respondent is required. • If the respondent's mark is between the response columns, then move it to the closest one. If it's directly between the two, move it to the higher one.
Each of the disability items on the SHAQ has a companion aids/devices variable that is used to record what type(s) of assistance, if any, the participant uses for his/her usual activities. These variables (see below) are coded as follows: • 0=No assistance is needed. • 1=A special device is used by the patient in his/her usual activities. • 2=The patient usually needs help from another person. • 3=The patient usually needs BOTH a special device AND help from another person.
The scoring variables and scoring rules permit the computation of two disability indices, the Standard Disability Index and the Alternative Disability Index.
This question results in a new set of category scores that are computed by adjusting the score for each category, if necessary, based on the patient's use of an aid or device or assistance for that category. If either devices and/or help from another person are checked for a category, the score is set to “2”, unless the score is already “3” (i.e., scores of “0” or “1” are increased to “2”). For example, if the highest score for the dressing category is “1”, and the patient says they use a device for dressing, the computed category score would be “2”. The sum of the computed categories scores is then calculated and divided by the number of categories answered. This gives a score in the 0 to 3 range.
The aid and device variables are not used to calculate the alternative disability index; it is calculated by adding the scores for each of the categories and dividing by the number of categories answered. This gives a score in the 0 to 3 range.
The standard, validated, patient reported outcome measures tool for SSc patients, the SHAQ, was collected at the time points specified in the study schedules (FIG. 2 and FIGS. 4A and 4B) to assess the participant's quality of life. The SHAQ included a Raynaud's VAS that will also be reported separately.

[1] = Pooled Cilnidipine 10 mg and Cilnidipine 10 mg + Tadalafil 5 mg (N = 9)
[2] = Pooled Cilnidipine 10 mg and Cilnidipine 10 mg + Tadalafil 5 mg (N = 9), Subject 01-110 score excluded
[3] = Pooled Cilnidipine 20 mg and Cilnidipine 20 mg + Tadalafil 5 mg (N = 8)
[4] = Modified ITT, Part A, dose Cilnidipine 10 mg, Tadalafil 5 mg, or 10 mg + 5 mg
[5] = Modified ITT, Part A, dose Cilnidipine 20 mg, or 20 mg + Tadalafil 5 mg

COCCOC(=O)C1=C(C)NC(C)=C(C(=O)OC/C=C/c2ccccc2)C1c1cccc([N+](=O)[O-])c1 (stereo not shown) [Cilnidipine, cilnidipine]
SHAQ Visual Analogue Scale - Overall Disease Severity, Median [1]: 1.900 | SHAQ Visual Analogue Scale - Pain, Mean [1]: 2.644 | SHAQ Visual Analogue Scale - Pain, Median [1]: 2.900 | SHAQ Visual Analogue Scale - Raynaud's, Mean [1]: 2.319 | SHAQ Visual Analogue Scale - Raynaud's, Median [1]: 2.600 | SHAQ Visual Analogue Scale - Breathing Problems, Mean [2]: 1.375 | SHAQ Visual Analogue Scale - Breathing Problems, Median [2]: 0.000 | SHAQ Visual Analogue Scale - Breathing Problems, Mean [3]: 1.400 | SHAQ Visual Analogue Scale - Breathing Problems, Median [3]: 0.450 | SHAQ Visual Analogue Scale - Finger Ulcers, Mean [3]: 1.171 | SHAQ Visual Analogue Scale - Finger Ulcers, Median [3]: 0.000 | SHAQ Visual Analogue Scale - Intestinal Problems, Mean [3]: 1.013 | SHAQ Visual Analogue Scale - Intestinal Problems, Median [3]: 0.100 | SHAQ Visual Analogue Scale - Overall Disease Severity, Mean [3]: 1.938 | SHAQ Visual Analogue Scale - Overall Disease Severity, Median [3]: 1.300 | SHAQ Visual Analogue Scale - Pain, Mean [3]: 2.288 | SHAQ Visual Analogue Scale - Pain, Median [3]: 2.100 | SHAQ Visual Analogue Scale - Raynaud's, Mean [3]: 1.688 | SHAQ Visual Analogue Scale - Raynaud's, Median [3]: 0.850 | SHAQ Visual Analogue Scale - Breathing Problems, Mean (Pooled Cilnidipine (N = 8)): 1.213 | SHAQ Visual Analogue Scale - Breathing Problems, Median (Pooled Cilnidipine (N = 8)): 0.200 | SHAQ Visual Analogue Scale - Finger Ulcers, Mean (Pooled Cilnidipine (N = 8)): 0.463 | SHAQ Visual Analogue Scale - Finger Ulcers, Median (Pooled Cilnidipine (N = 8)): 0.000 | SHAQ Visual Analogue Scale - Intestinal Problems, Mean (Pooled Cilnidipine (N = 8)): 0.975 | SHAQ Visual Analogue Scale - Intestinal Problems, Median (Pooled Cilnidipine (N = 8)): 0.300 | SHAQ Visual Analogue Scale - Overall Disease Severity, Mean (Pooled Cilnidipine (N = 8)): 1.475 | SHAQ Visual Analogue Scale - Overall Disease Severity, Median (Pooled Cilnidipine (N = 8)): 1.300 | SHAQ Visual Analogue Scale - Pain, Mean (Pooled Cilnidipine (N = 8)): 1.875 | SHAQ Visual Analogue Scale - Pain, Median (Pooled Cilnidipine (N = 8)): 1.550 | SHAQ Visual Analogue Scale - Raynaud's, Mean (Pooled Cilnidipine (N = 8)): 1.900 | SHAQ Visual Analogue Scale - Raynaud's, Median (Pooled Cilnidipine (N = 8)): 1.250 | SHAQ Finger Ulcers, Baseline, Mean [4]: 0.700 | SHAQ Finger Ulcers, Baseline, Median [4]: 0.500 | SHAQ Finger Ulcers, In Clinic Visit (Day 12), Mean [4]: 0.275 | SHAQ Finger Ulcers, In Clinic Visit (Day 12), Median [4]: 0.000 | SHAQ Standard disability index, Baseline, Mean [4]: 0.656 | SHAQ Standard disability index, Baseline, Median [4]: 0.563 | SHAQ Standard disability index, In Clinic Visit (Day 12), Mean [4]: 0.656 | SHAQ Standard disability index, In Clinic Visit (Day 12), Median [4]: 0.563 | SHAQ Visual Analog Scale-Breathing Problems, Baseline, Mean [4]: 1.875 | SHAQ Visual Analog Scale-Breathing Problems, Baseline, Median [4]: 0.000 | SHAQ Visual Analog Scale-Breathing Problems, In Clinic Visit (Day 12), Mean [4]: 1.575 | SHAQ Visual Analog Scale-Breathing Problems, In Clinic Visit (Day 12), Median [4]: 0.000 | SHAQ Visual Analog Scale-Intestinal Problems, Baseline, Mean [4]: 2.975 | SHAQ Visual Analog Scale-Intestinal Problems, Baseline, Median [4]: 2.550 | SHAQ Visual Analog Scale-Intestinal Problems, In Clinic Visit (Day 12), Mean [4]: 1.100 | SHAQ Visual Analog Scale-Intestinal Problems, In Clinic Visit (Day 12), Median [4]: 0.300 | SHAQ Visual Analog Scale-Pain, Baseline, Mean [4]: 1.975 | SHAQ Visual Analog Scale-Pain, Baseline, Median [4]: 2.150 | SHAQ Visual Analog Scale-Pain, In Clinic Visit (Day 12), Mean [4]: 1.875 | SHAQ Visual Analog Scale-Pain, In Clinic Visit (Day 12), Median [4]: 1.950 | SHAQ Visual Analog Scale-Raynaud's, Baseline, Mean [4]: 1.600 | SHAQ Visual Analog Scale-Raynaud's, Baseline, Median [4]: 1.000 | SHAQ Visual Analog Scale-Raynaud's, In Clinic Visit (Day 12), Mean [4]: 1.925 | SHAQ Visual Analog Scale-Raynaud's, In Clinic Visit (Day 12), Median [4]: 1.700 | SHAQ alternative disability index, Baseline, Mean [4]: 0.500 | SHAQ alternative disability index, Baseline, Median [4]: 0.438 | SHAQ alternative disability index, In Clinic Visit (Day 12), Mean [4]: 0.563 | SHAQ alternative disability index, In Clinic Visit (Day 12), Median [4]: 0.500 | SHAQ Finger Ulcers, Baseline, Mean [5]: 1.800 | SHAQ Finger Ulcers, Baseline, Median [5]: 0.300
